Like-named read-outs stand apart in the source and are kept apart here.
Legend:
CYP2C9 = CYP2C9 (Homo sapiens, UniProt P11712); assay: Direct CYP inhibition assay using pooled HLM; details: pooled HLM
Description: (§1) The enzyme reactions were initiated by adding NADPH (1 mM), and the mixtures were incubated at 37 °C for 5 min in a shaking water bath (100 rpm). The reaction was terminated by adding ice-cold acetonitrile (ACN) containing CBZ (100 nM) and 4-methyl-umbelliferone (300 nM) as internal standards (IS).
(§2) The chromatographic separation was performed on an Agilent 1200 series HPLC system (Agilent Technologies, Santa Clara, CA, USA) equipped with an Atlantis^TM dC18 column (2.1 × 50 mm, 3 µm; Waters Corporation, Milford, MA, USA) with a SecuityGuard^TM C18 guard column (2.0 × 4.0 mm; Phenomenex, Torrance, CA, USA). The mobile phases consisted of double-deionized water (DDW) containing 0.1% (v/v) of formic acid (A) and ACN containing 0.1% (v/v) formic acid (B). […] The sample injection volume was 10 µL, and the total run time was 9.0 min. The column and auto-sampler compartments were maintained at 30 °C and 10 °C, respectively, throughout the analysis. The detection was performed using an API4000 Q-TRAP system equipped with a Turbo V Ion Spray^TM source (Applied Biosystems, Foster City, CA, USA). The operating conditions were optimized as follows: ionization voltage: 5500 V for positive-ion mode and −4500 V for negative-ion mode; ion source temperature: 550 °C; nebulizing gas flow: 50 L/min; auxiliary gas flow: 40 L/min; and curtain gas flow: 30 L/min. The samples were analyzed via multiple reaction monitoring (MRM) mode. […] The data acquisition and processing were performed using Analyst^TM software (version 1.5.2; Applied Biosystems, Foster City, CA, USA).

CYP2D6 [1] = biological target: T1, CYP2D6 (Homo sapiens, UniProt P10635); details: microsomes
Description: The pre-incubation mixtures consisting of potassium phosphate buffer (0.1 M; pH 7.4), HLM (1 mg/mL), NADPH (1 mM), and inhibitor (total volumes of 180 µL per well) were incubated at 37 °C for 30 min. To verify the reversibility of quasi-irreversible inhibition, potassium ferricyanide (2 mM) was co-incubated with the mixture for 10 min at 37 °C, from which microsomes were re-isolated by ultracentrifugation at 100,000 g for 60 min at 4 °C. The resulting microsomal pellet was washed twice with potassium phosphate buffer (0.1 M; pH 7.4). The obtained microsomes (adjusted to 0.2 mg/mL) were incubated with CYP substrates (25 µM of dextromethorphan for CYP2D6 and 25 µM of MDZ for CYP3A4) and NADPH (1 mM) in potassium phosphate buffer (0.1 M; pH 7.4) for 5 min to measure the CYP activity. The reactions were terminated by the addition of ACN (200 µL) containing CBZ (100 nM).

CYP1A2 = biological target: T2, CYP1A2 (Homo sapiens, UniProt P05177); assay: Direct CYP inhibition assay using pooled HLM; details: pooled HLM
T2 sequence (P05177 1-516): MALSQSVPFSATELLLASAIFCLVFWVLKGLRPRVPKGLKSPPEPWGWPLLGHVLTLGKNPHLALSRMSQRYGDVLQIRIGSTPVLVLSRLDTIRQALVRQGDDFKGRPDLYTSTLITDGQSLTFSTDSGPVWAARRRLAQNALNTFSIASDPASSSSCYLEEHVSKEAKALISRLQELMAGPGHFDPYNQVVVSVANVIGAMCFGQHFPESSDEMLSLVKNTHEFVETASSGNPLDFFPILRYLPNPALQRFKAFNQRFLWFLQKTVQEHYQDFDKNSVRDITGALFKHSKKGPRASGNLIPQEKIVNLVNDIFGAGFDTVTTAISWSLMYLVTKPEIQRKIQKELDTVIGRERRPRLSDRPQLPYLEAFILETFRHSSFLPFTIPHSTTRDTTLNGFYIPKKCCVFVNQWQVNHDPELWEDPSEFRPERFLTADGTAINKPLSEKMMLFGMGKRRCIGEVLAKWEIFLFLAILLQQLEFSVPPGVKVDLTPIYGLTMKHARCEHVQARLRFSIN
Description: as §1, §2

CYP2B6 = biological target: T3, CYP2B6 (Homo sapiens, UniProt P20813); assay: Direct CYP inhibition assay using pooled HLM; details: pooled HLM
T3 sequence (P20813 1-491): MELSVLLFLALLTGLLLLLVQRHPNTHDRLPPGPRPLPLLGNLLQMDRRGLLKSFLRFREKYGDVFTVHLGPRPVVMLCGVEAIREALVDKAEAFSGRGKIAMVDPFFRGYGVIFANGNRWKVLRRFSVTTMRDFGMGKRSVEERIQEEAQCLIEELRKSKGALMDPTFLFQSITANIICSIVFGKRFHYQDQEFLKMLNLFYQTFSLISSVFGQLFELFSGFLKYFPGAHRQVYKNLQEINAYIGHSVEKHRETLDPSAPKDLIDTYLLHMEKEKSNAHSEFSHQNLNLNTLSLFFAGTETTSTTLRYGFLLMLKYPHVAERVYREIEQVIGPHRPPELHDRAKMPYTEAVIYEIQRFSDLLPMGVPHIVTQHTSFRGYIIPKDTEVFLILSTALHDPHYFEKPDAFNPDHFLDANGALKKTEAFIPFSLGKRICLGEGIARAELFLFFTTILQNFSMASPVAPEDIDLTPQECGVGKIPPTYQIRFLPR
Description: as §1, §2

CYP2C19 = CYP2C19 (Homo sapiens, UniProt P33261); assay: Direct CYP inhibition assay using pooled HLM; details: pooled HLM
Description: as §1, §2

CYP2C8 = biological target: T4, CYP2C8 (Homo sapiens, UniProt P10632); assay: Direct CYP inhibition assay using pooled HLM; details: pooled HLM
T4 sequence (P10632 1-490): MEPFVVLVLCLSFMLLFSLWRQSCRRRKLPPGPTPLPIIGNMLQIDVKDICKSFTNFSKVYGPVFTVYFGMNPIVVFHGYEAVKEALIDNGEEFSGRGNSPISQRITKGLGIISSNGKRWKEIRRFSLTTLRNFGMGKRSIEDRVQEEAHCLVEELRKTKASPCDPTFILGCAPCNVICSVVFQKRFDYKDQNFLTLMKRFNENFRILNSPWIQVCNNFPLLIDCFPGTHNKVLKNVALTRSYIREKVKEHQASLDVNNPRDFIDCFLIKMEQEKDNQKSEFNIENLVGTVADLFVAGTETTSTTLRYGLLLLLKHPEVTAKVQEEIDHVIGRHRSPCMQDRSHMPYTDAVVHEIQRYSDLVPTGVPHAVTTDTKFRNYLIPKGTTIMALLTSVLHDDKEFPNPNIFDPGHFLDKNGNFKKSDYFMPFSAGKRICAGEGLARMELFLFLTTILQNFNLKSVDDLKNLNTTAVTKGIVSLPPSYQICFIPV
Description: as §1, §2

CYP2D6 [2] = biological target: T1, CYP2D6; assay: Metabolism-dependent CYP2D6 inhibition assay (IC50 shift) using pooled HLM; details: pooled HLM; for MDI (metabolism-dependent inhibition) of CYP2D6 (in words): pre-incubation with NADPH
Description: Pre-incubation was performed in pooled HLM (0.2 mg/mL) added with BBR, THB, TFD, or DMB, or rhCYP2D6 (10 pmol/mL) added with BBR, with or without NADPH (1 mM) in phosphate buffer (0.1 M; pH 7.4) for 30 min. Then, the CYP2D6 substrate (5 µM of dextromethorphan) and NADPH (1 mM) were added to the mixture and incubated for another 10 min. All incubations were carried out at 37 °C in a shaking water bath (100 rpm) using eight-well tube strips placed in an 8 × 12 rack, where the final volume of each reaction mixture was 200 µL. […] The enzyme reactions were quenched by adding an aliquot (200 µL) of ice-cold ACN containing CBZ (100 nM) as an IS. The samples were centrifuged, and the concentration of CYP2D6 metabolite (i.e., dextrorphan, produced by O-demethylation of dextromethorphan) in supernatants were analyzed using the LC-MS/MS method described in Section 2.2.

CYP2D6 [3] = biological target: T1, CYP2D6; assay: Direct CYP inhibition assay using pooled HLM
Description: as §1, §2

CYP2E1 = CYP2E1 (Homo sapiens, UniProt P05181); assay: Direct CYP inhibition assay using pooled HLM; details: pooled HLM
Description: as §1, §2

CYP2A6 = biological target: T5, CYP2A6 (Homo sapiens, UniProt P11509); assay: Direct CYP inhibition assay using pooled HLM; details: pooled HLM
T5 sequence (P11509 1-494): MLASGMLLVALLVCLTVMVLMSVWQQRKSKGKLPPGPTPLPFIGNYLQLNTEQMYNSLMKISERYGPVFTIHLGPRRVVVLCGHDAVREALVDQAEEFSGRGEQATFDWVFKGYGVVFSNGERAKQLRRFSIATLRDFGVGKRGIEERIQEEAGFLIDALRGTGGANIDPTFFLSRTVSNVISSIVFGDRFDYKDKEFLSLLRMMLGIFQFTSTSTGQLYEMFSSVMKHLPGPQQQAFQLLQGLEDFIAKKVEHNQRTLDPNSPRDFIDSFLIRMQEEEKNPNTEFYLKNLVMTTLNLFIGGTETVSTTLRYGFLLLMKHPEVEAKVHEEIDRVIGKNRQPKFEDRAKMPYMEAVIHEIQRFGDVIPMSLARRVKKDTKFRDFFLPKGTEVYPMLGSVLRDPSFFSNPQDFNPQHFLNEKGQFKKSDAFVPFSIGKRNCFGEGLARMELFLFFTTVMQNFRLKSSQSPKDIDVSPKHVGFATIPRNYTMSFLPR
Description: as §1, §2

[4] = Metabolic stability and metabolite formation of BBR in pooled HLM; details: for Concentration in incubation mixture (elimination of BBR and formation of its metabolites): BBR 1 µM in pooled HLM with NADPH-generating system, mean ± SD
Description: To evaluate NADPH-dependent metabolism, BBR (1 µM) was incubated with pooled HLM (1 mg/mL) in the presence of the NADPH-regenerating system (1 mM of NADP^+, 5 mM of G6P, and 1 U/mL of G6PDH) to be a final volume of 200 µL. The reactions were quenched by adding the same volume of ice-cold ACN containing CBZ (100 nM) at 0, 7.5, 15, 30, 60, and 120 min of incubation. The incubation mixtures were centrifuged at 1000× g for 20 min at 4 °C, and the supernatants were analyzed by the LC-MS/MS system described in Section 2.2.
Meanwhile, to identify the known metabolites of BBR, an aliquot (5 µL) of the supernatant was injected into an accurate-MS system consisting of an Agilent 6530 Q-TOF LC/MS equipped with dual AJS ESI ion source (Agilent Technologies) and Agilent 1200 series HPLC system (Agilent Technologies). Chromatographic separations were performed on an Agilent Eclipse Plus C18 column (150 × 2.1 mm, 3.5 µm; Agilent Technologies) by gradient elution with a binary mobile phase consisting of DDW with 0.1% (v/v) formic acid (A) and ACN with 0.1% (v/v) formic acid (B) at a flow rate of 0.2 mL/min, where the mobile phase B was set as follows: 2% at 0 min, 20% at 15 min, and 30% at 20–25 min, followed by re-equilibration for 3 min.
In vitro metabolic stability parameters, including half-life (t1/2) and microsomal intrinsic clearance (CLint,mic), were determined according to our previous report [32]. The degradation t1/2 values of the microsomal stability studies were calculated using the following Equation (2):(2) t1/2=0.693/k, where k represents the first-order degradation rate constant. The k values were estimated by fitting a one-phase exponential decay model to the parent drug remaining (%) vs. incubation time plots using GraphPad Prism 5.0 (GraphPad Software Inc., San Diego, CA, USA).
The CLint,mic was determined using the in vitro half-life approach.

CYP3A4 = CYP3A4 (Homo sapiens, UniProt P08684); assay: Direct CYP inhibition assay using pooled HLM
Description: as §1, §2

[5] = human, pooled human liver microsomes

CYP3A4, sequence (P08684 whole entry): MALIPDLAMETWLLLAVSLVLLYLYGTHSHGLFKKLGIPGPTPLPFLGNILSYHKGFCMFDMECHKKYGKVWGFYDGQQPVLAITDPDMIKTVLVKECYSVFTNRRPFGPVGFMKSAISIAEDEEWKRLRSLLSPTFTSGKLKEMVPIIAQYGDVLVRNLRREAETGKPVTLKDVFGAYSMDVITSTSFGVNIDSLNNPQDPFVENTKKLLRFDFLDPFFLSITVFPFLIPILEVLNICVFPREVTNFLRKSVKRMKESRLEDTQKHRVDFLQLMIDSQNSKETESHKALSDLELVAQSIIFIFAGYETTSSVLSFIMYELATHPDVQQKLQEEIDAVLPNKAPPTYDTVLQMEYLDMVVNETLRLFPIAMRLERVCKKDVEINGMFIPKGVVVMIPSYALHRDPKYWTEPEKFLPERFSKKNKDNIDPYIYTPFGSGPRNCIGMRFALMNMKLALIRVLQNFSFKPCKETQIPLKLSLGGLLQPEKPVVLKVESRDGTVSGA
T1 sequence (P10635 whole entry): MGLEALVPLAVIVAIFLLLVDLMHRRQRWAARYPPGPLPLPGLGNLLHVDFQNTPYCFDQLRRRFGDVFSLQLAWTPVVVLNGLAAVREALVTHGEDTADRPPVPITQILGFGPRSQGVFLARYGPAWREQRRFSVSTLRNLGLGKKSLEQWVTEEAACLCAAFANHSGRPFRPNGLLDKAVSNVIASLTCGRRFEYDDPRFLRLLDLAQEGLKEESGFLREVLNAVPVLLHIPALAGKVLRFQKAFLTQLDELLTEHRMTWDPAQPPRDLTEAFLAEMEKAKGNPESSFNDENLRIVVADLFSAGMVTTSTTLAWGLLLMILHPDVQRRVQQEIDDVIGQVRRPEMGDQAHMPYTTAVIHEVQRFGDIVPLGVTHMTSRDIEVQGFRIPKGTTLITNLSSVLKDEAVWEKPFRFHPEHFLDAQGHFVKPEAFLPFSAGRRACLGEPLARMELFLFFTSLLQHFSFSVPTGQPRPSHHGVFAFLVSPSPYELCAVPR
CYP2E1, sequence (P05181 whole entry): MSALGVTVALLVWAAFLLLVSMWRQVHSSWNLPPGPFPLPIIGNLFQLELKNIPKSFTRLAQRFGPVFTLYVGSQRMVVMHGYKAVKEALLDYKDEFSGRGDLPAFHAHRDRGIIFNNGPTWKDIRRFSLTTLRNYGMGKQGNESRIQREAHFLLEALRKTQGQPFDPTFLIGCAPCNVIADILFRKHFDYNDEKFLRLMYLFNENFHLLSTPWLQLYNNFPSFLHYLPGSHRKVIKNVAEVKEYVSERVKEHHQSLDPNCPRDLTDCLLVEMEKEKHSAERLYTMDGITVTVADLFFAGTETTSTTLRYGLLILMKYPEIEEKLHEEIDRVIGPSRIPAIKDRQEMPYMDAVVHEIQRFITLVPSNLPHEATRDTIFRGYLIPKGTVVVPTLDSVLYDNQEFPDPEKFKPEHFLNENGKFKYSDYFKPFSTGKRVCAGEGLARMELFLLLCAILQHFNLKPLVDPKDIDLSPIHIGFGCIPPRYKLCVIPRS
CYP2C9, sequence (P11712 whole entry): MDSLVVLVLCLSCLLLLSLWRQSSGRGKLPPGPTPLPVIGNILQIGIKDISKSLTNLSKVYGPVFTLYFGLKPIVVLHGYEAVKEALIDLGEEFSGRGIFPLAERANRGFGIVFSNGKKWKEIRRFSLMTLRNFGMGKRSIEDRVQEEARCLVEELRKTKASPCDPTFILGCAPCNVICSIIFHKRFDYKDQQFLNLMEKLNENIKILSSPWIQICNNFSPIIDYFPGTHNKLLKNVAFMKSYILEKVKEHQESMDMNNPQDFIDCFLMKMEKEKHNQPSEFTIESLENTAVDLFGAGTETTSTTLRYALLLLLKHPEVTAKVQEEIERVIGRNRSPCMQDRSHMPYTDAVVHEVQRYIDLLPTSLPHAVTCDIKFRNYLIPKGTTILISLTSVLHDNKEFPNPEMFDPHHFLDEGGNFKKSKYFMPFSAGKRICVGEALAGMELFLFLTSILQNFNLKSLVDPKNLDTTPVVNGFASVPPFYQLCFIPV
CYP2C19, sequence (P33261 whole entry): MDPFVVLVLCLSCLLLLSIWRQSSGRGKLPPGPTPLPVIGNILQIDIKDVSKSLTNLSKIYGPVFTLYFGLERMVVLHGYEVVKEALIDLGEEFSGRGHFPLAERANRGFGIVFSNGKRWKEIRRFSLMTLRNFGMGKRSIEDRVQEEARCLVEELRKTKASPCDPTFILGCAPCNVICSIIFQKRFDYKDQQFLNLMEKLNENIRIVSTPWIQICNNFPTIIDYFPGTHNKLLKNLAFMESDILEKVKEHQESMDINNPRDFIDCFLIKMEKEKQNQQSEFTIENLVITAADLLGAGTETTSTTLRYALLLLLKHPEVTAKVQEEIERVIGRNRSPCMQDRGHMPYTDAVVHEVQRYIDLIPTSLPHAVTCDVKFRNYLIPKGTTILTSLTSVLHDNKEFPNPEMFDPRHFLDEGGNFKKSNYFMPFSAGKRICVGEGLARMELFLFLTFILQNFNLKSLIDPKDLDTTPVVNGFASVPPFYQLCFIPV

COc1ccc2cc3[n+](cc2c1OC)CCc1cc2c(cc1-3)OCO2 [BBR, berberine]
Inhibition of CYP2C9 (in words) (CYP2C9; up to 100 µM): not markedly inhibited | Mode of CYP2D6 inhibition (CYP2D6 [1]): quasi-irreversible | Inhibition of CYP1A2 (in words) (CYP1A2; up to 100 µM): not markedly inhibited | Inhibition of CYP2B6 (in words) (CYP2B6; up to 100 µM): not markedly inhibited | Inhibition of CYP2C19 (in words) (CYP2C19; up to 100 µM): not markedly inhibited | Inhibition of CYP2C8 (in words) (CYP2C8; up to 100 µM): not markedly inhibited | IC50 (CYP2D6 [2]; IC50 against CYP2D6, pre-incubation with NADPH, 30 min pre-incubation with NADPH): 1.66 µM | IC50 (CYP2D6 [2]; IC50 against CYP2D6, pre-incubation without NADPH, 30 min pre-incubation without NADPH): 12.4 µM | MDI (metabolism-dependent inhibition) of CYP2D6 (in words) (CYP2D6 [2]): exhibited MDI | IC50 (CYP2D6 [3]): 11.9 µM | Inhibition of CYP2E1 (in words) (CYP2E1; up to 100 µM): not markedly inhibited | Inhibition of CYP2A6 (in words) (CYP2A6; up to 100 µM): not markedly inhibited | Concentration in incubation mixture (elimination of BBR and formation of its metabolites) ([4]; 0 min): 1049 ± 16 nM | Concentration in incubation mixture (elimination of BBR and formation of its metabolites) ([4]; 7.5 min): 807 ± 11 nM | Concentration in incubation mixture (elimination of BBR and formation of its metabolites) ([4]; 15 min): 713 ± 12 nM | Concentration in incubation mixture (elimination of BBR and formation of its metabolites) ([4]; 30 min): 539 ± 4 nM | Concentration in incubation mixture (elimination of BBR and formation of its metabolites) ([4]; 60 min): 313 ± 15 nM | Concentration in incubation mixture (elimination of BBR and formation of its metabolites) ([4]; 120 min): 147 ± 5 nM | half-life at 1 µM [4, 5]: 35.4 min | microsomal CLint at 1 µM [4, 5]: 7.82 µL/min/mg | Metabolic stability in HLM (in words) ([4]; pooled HLM): moderately stable | Inhibition of CYP3A4 (in words) (CYP3A4; up to 100 µM, substrates MDZ and TST): not markedly inhibited

COc1ccc2cc3[n+](cc2c1OC)CCc1cc(O)c(O)cc1-3 [DMB, demethyleneberberine]
IC50 (CYP2C9; read-out: IC50 CYP2C9, direct inhibition, 95% confidence intervals in parentheses): > 100 µM | IC50 (CYP1A2; read-out: IC50 CYP1A2, direct inhibition, 95% confidence intervals in parentheses): > 100 µM | IC50 (CYP2B6; read-out: IC50 CYP2B6, direct inhibition, 95% confidence intervals in parentheses): > 100 µM | IC50 (CYP2C19; read-out: IC50 CYP2C19, direct inhibition, 95% confidence intervals in parentheses): > 100 µM | IC50 (CYP2C8; read-out: IC50 CYP2C8, direct inhibition, 95% confidence intervals in parentheses): > 100 µM | MDI (metabolism-dependent inhibition) of CYP2D6 (in words) (CYP2D6 [2]): not | IC50 (CYP2D6 [2]; read-out: IC50 against CYP2D6, pre-incubation with NADPH, 30 min pre-incubation with NADPH): 54.9 µM | IC50 (CYP2D6 [2]; read-out: IC50 against CYP2D6, pre-incubation without NADPH, 30 min pre-incubation without NADPH): 34.7 µM | IC50 (CYP2D6 [3]; read-out: IC50 CYP2D6, pooled HLM, direct inhibition, substrate dextromethorphan, 95% confidence intervals in parentheses): 32 µM | IC50 (CYP2E1; read-out: IC50 CYP2E1, direct inhibition, 95% confidence intervals in parentheses): 7.7 µM | IC50 (CYP2A6; read-out: IC50 CYP2A6, direct inhibition, 95% confidence intervals in parentheses): > 100 µM | Concentration in incubation mixture (elimination of BBR and formation of its metabolites) ([4]; 0 min): 6.1 ± 0.1 nM | Concentration in incubation mixture (elimination of BBR and formation of its metabolites) ([4]; 7.5 min): 24.1 ± 0.3 nM | Concentration in incubation mixture (elimination of BBR and formation of its metabolites) ([4]; 15 min): 38.1 ± 0.5 nM | Concentration in incubation mixture (elimination of BBR and formation of its metabolites) ([4]; 30 min): 52.6 ± 1.9 nM | Concentration in incubation mixture (elimination of BBR and formation of its metabolites) ([4]; 60 min): 64.3 ± 1.6 nM | Concentration in incubation mixture (elimination of BBR and formation of its metabolites) ([4]; 120 min): 75.0 ± 1.0 nM | IC50 (CYP3A4; read-out: IC50 CYP3A4 (MDZ), direct inhibition, substrate MDZ, 95% confidence intervals in parentheses): 66 µM | IC50 (CYP3A4; read-out: IC50 CYP3A4 (TST), direct inhibition, substrate TST, 95% confidence intervals in parentheses): 7.3 µM

— PMC7600264, “Quasi-Irreversible Inhibition of CYP2D6 by Berberine” (Pharmaceutics, 2020)
